In assay [1] the test system is bio-artificial tissues (F-actin network). Description: Tissue indentation device: force-time and longitudinal force-strain curves (Example 15). The format is cell-based. The protocol: (§1) Bio-artificial tissues were generated by mixing cells and neutralized collagen, as described elsewhere (Wakatsuki et al., 2000, Biophys. J. 79:2353-2368). Briefly, cells were mixed with neutralized rat-tail collagen (Millipore Billerica, Mass.) and media containing 10% Fetal Bovine Serum (FBS). 200-250[…]1 of this solution is poured into wells as described below. The tissues are cultured in Dulbecco's modified Eagle's medium (DMEM) supplemented with 10% FBS and antibiotics (penicillin and streptomycin) in an incubator for two or three days. The bio-artificial tissue membrane was stretched using a mechanical testing device is (as detailed below). During the mechanical measurements, culture medium was switched to a HEPES-buffered DMEM, pH 7.4, and maintained at 37° C.
A chamber to hold 8 bio-artificial tissues was machined from a polycarbonate bar (25×60×10 mm) using a tabletop CNC mill (Sherline Products Inc., Vista, Calif.). The 8 square wells of 8×8 mm contained 2 horizontal stainless-steel (medical grade) bars (1 mm diameter) which centers were located 2 mm above bottom and 2 mm beside each wall and were 4 mm apart (FIG. 29A). A microscope cover-slip (No. 1 thickness, Fisher brand) sealed the bottom of wells using silicon glue (Dow chemicals) to facilitate microscopic imaging of cells and bio-artificial tissues. […]
The mechanical testing device is depicted in FIG. 29A. […] The linear actuators were controlled simultaneously by a personal computer that also recorded the signal generated by the force transducer. […]
While the force-probe indents the bio-artificial tissues vertically at a constant rate, ν (0.5 mm/sec), an isometric force transducer connected to the force probe recorded a resistance force, F(t). A time dependent change in bio-artificial tissues-membrane force in the longitudinal direction, T(t), was calculated from F(t) by a trigonometric relationship (FIG. 28). This rate of indentation was determined to achieve a minimum noise-level by the current device arrangement. […]

Assay [2] relates to bio-artificial tissues including chicken embryo fibroblasts. The experiment in a line: Tissue indentation device: stiffness and active cell force after CD (Example 16). The format is cell-based. On the procedure: as §1
Cells used in this study included: (1) rat embryo fibroblasts (REF52 cell line) maintained in DMEM supplemented with 10% FBS split once a week (kind gift from Dr. Wysolmerski, Department of Neurobiology and Anatomy, West Virginia University School of Medicine), (2) chicken embryo fibroblasts (CEFs) isolated from 10 day old chicken embryos using a previously described protocol (Wakatsuki et al., 2000, Biophys. J. 79(5):2353-2368) maintained in DMEM supplemented with 3% FBS (passage 2 to 5), and (3) smooth muscle cells (SMC) isolated from adult rat aorta using a previously described protocol (Griendling et al., 1991, J. Biol. Chem. 266(23):15498-15504) cultured in DMEM supplemented with 10% FBS and 1% […] (passage 10-12).
A chamber to hold 8 bio-artificial tissues was machined from a polycarbonate bar (25×60×10 mm) using a tabletop CNC mill (Sherline Products Inc., Vista, Calif.). The 8 square wells of 8×8 mm contained 2 horizontal stainless-steel (medical grade) bars (1 mm diameter) which centers were located 2 mm above bottom and 2 mm beside each wall and were 4 mm apart (FIG. 29A). A microscope cover-slip (No. 1 thickness, Fisher brand) sealed the bottom of wells using silicon glue (Dow chemicals) to facilitate microscopic imaging of cells and bio-artificial tissues. A pre-polymerized solution of bio-artificial tissues was poured into the wells until the horizontal bars became immersed to half of its depth. During tissue culture, the solution gelled and entrapped cells that remodeled and compacted the gel (Tranquillo, 1999, Biochem. Soc. Symp. 65:27-42) by cell traction force. By the next day, the bio-artificial tissues detached from the bottom and side wall to form a membrane spanning between the two bars. The bio-artificial tissues stiffened to form a thin layer of tissue overlaying the bars and generated active tension within the bio-artificial tissues. The chambers were sterilized by UV before usage and kept in a 100 mm sterile Petri dish to avoid any contamination.
The mechanical testing device is depicted in FIG. 29A. A horizontal linear actuator (FIG. 29A-a, ER32-SRN300A, Parker, Wadsworth, Ohio) automatically places the center of each well at right angles below a force-probe (FIG. 29A-c). The bottom of L-shaped probe indents and bends the bio-artificial tissues at the middle (FIG. 29D). The other end of the probe is connected to an isometric force transducer (FIG. 29A-b, model 52-9545, Harvard Apparatus, South Natick, Mass.) and moved by a vertical linear actuator (FIG. 29A-a, ER32-SRN100A, Parker, Wadsworth, Ohio). During the tests, the temperature of bio-artificial tissues in the wells was maintained at 37° C. using a water jacketed warm plate (FIG. 29A-e) connected to a circulating water bath (HAAKE C10-P5, Thermo Fisher Scientific, Inc. Waltham, Mass.). The linear actuators were controlled simultaneously by a personal computer that also recorded the signal generated by the force transducer. The bio-artificial tissues can be quickly placed in a holder at its designated position for mechanical measurements. A time dependent function to lengthen and shorten bio-artificial tissues was predetermined using the computer software of the device. […]

The structures appear in SMILES notation.

Take `C=C1[C@@H](C)[C@H]2[C@H](Cc3ccccc3)NC(=O)[C@]23[C@H](OC(C)=O)/C=C/[C@@](C)(O)C(=O)[C@@H](C)C/C=C/[C@H]3[C@@H]1O` [CD, cytochalasin D]: the “pre-force σ0A (minimum force) compared to untreated control” value in assay [1] (90 nM CD) and in assay [1] (2 μM CD) was “reduced levels” each time. In addition, in assay [1] (90 nM and 2 μM CD), the “resistance force F(t) while stretching the membrane” value is “less resistance force”. Further, the “pre-force (active cell force, CD treatment over control)” value in assay [2] (200 pM to 2 μM CD, two hours post-treatment) is “concentration-dependent reduction”. In addition, the “EACD/EACT (ratio of post- over pre- CD treated stiffness)” value was 0.932 ± 0.013 in assay [2] ([CD] 0.2 nM); 0.938 ± 0.016 in assay [2] ([CD] 0.9 nM); 0.986 ± 0.015 in assay [2] ([CD] 4 nM); 0.979 ± 0.013 in assay [2] ([CD] 20 nM); 0.970 ± 0.016 in assay [2] ([CD] 90 nM); 0.964 ± 0.021 in assay [2] ([CD] 400 nM). For the same compound, in assay [2] ([CD] 2000 nM), the “EACD/EACT (ratio of post- over pre- CD treated stiffness)” value is 1.077 ± 0.050. For the same compound, the “zCD-zCT (difference in sample surface height between post- and pre- CD treated samples)” value in assay [2] ([CD] 0.2 nM) is −8.925 ± 9.257 μm; in assay [2] ([CD] 0.9 nM), −21.761 ± 8.982 μm; in assay [2] ([CD] 4 nM) it was −23.707 ± 13.222 μm; in assay [2] ([CD] 20 nM) it was 4.550 ± 7.653 μm; in assay [2] ([CD] 90 nM), −22.054 ± 12.989 μm; in assay [2] ([CD] 400 nM), −17.607 ± 6.533 μm. Also, the “zCD-zCT (difference in sample surface height between post- and pre- CD treated samples)” value in assay [2] ([CD] 2000 nM) was −35.318 ± 15.189 μm. Further, in assay [2] (after the CD treatment), the “EA (mechanical properties of extracellular matrix)” value was “did not change at all”.

The values are drawn from US8227240B2, “Systems for screening pharmaceutical chemicals” (The Washington University, priority 2001, dated 2012).
